Molecular target: T1, PAPD5 (Homo sapiens, UniProt Q8NDF8)
T1 construct: made in house
Assay: High-throughput luminescence (KinaseGlo) RNA polyadenylation assay, ATP utilization by recombinant PAPD5
Format: biochemical
Conditions: Table 4 (entries of Table 5), ratio of luminescence with inhibitor to DMSO; for Fold-change determined at compound concentration 33 μM: 33 μM compound; for Fold-change determined at compound concentration 100 μM: 100 μM compound, higher = higher inhibition
Procedure, shortened: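 Recombinant PAPD5 polyadenylates an oligonucleotide substrate using ATP, and remaining ATP is read by KinaseGlo luciferase luminescence. Compound was incubated for 2 h at room temperature, then with luciferase for 10 min.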

T1 sequence (Q8NDF8 68-698 isoform Q8NDF8-5): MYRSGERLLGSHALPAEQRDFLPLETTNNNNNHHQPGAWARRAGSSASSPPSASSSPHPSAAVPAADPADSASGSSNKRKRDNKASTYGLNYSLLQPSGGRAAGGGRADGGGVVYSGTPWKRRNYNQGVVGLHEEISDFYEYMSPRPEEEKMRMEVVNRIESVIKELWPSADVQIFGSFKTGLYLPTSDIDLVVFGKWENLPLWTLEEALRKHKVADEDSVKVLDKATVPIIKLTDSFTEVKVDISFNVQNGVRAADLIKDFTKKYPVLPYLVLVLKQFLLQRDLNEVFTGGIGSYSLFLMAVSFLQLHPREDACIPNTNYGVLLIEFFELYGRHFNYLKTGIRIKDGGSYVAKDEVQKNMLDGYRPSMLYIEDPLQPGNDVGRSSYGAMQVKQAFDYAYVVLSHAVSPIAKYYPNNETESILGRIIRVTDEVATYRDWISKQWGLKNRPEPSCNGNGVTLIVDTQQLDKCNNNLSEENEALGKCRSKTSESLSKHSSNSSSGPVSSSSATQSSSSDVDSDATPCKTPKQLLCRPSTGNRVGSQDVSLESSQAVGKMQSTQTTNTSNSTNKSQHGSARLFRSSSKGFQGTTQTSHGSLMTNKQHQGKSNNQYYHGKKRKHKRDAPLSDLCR

Row | SMILES | Fold-change determined at compound concentration 33 μM | Fold-change determined at compound concentration 100 μM
1 | O=c1c2c([nH]c3nc(CNc4ccc(Br)cc4)nn13)CCC2 [Entry 152, 2-{[(4-bromophenyl)amino]methyl}-4,5,6,7-tetrahydro-8H-cyclopenta[d][1,2,4]triazolo[1,5-a]pyrimidin-8-one] | 1.146 | 1.461
2 | O=c1c2c([nH]c3nc(CNc4ccccc4F)nn13)CCC2 [Entry 153, 2-{[(2-fluorophenyl)amino]methyl}-4,5,6,7-tetrahydro-8H-cyclopenta[d][1,2,4]triazolo[1,5-a]pyrimidin-8-one] | 1.077 | 1.259
3 | Cc1ccc(Cl)cc1NCc1nc2[nH]c3c(c(=O)n2n1)CCC3 [Entry 154, 2-{[(5-chloro-2-methylphenyl)amino]methyl}-4,5,6,7-tetrahydro-8H-cyclopenta[d][1,2,4]triazolo[1,5-a]pyrimidin-8-one] | 1.013 | 1.282
4 | CCCc1cc(=O)n2nc(CNc3ccc(Cl)cc3)nc2[nH]1 [Entry 155, 2-{[(4-chlorophenyl)amino]methyl}-5-propyl[1,2,4]triazolo[1,5-a]pyrimidin-7(4H)-one] | 1.097 | 1.372
5 | CCOC(=O)c1c[nH]c2nc(NCc3cccc(Br)c3)nn2c1=O [Entry 156, ethyl 2-[(3-bromophenyl)methylamino]-7-oxo-1H-[1,2,4]triazolo[1,5-a]pyrimidine-6-carboxylate] | 1.212 | 1.516
6 | O=S(=O)(NC1=NC2=NC(c3ccccc3)=CC(c3ccc(F)cc3)N2N1)c1ccc(Cl)cc1 (centres unmarked) [Entry 157, 4-chloro-N-[7-(4-fluorophenyl)-5-phenyl-1,7-dihydro-[1,2,4]triazolo[1,5-a]pyrimidin-2-yl]benzenesulfonamide] | 1.059 | 1.203
7 | CCc1nc2[nH]c(-c3ccc(C)cc3)cc(=O)n2n1 [Entry 158, 2-ethyl-5-(4-methylphenyl)[1,2,4]triazolo[1,5-a]pyrimidin-7(4H)-one] | 1.13 | 1.364
8 | Cc1ccc(S(=O)(=O)NC2=NC3=NC(c4ccccc4)=CC(c4ccc(Cl)cc4)N3N2)cc1 (centres unmarked) [Entry 159, N-[7-(4-chlorophenyl)-5-phenyl-1,7-dihydro-[1,2,4]triazolo[1,5-a]pyrimidin-2-yl]-4-methylbenzenesulfonamide] | 1.12 | 1.22
9 | c1cc(OCCN2CCCCC2)cc(-c2n[nH]c3ccc(-c4ncn[nH]4)cc23)c1 [Entry 160, 3-[3-(2-piperidin-1-ylethoxy)phenyl]-5-(1H-1,2,4-triazol-5-yl)-1H-indazole] | 1.075 | 1.239
10 | O=c1nc(SCc2ccc(F)cc2)[nH]c2nc[nH]c12 [Entry 162, 2-[(4-fluorophenyl)methylsulfanyl]-3,7-dihydropurin-6-one] | 1.153 | 1.431

The remaining lines, values ahead:

Row | Fold-change determined at compound concentration 33 μM | Fold-change determined at compound concentration 100 μM | SMILES
11 | 1.109 | 1.287 | Cc1ccccc1CSc1nc(=O)c2[nH]cnc2[nH]1 [Entry 163, 2-[(2-methylphenyl)methylsulfanyl]-3,7-dihydropurin-6-one]
12 | 1.126 | 1.293 | Cc1oc2ccccc2c1C(=O)CSc1nc(O)c2nc[nH]c2n1 [Entry 164, 2-[(6-hydroxy-9H-purin-2-yl)thio]-1-(2-methyl-1-benzofuran-3-yl)ethanone]
13 | 1.224 | 1.689 | COc1cc(-c2nc(C(N)=O)c3[nH]c(=O)n(CC4CCCO4)c3n2)ccc1O (centres unmarked) [Entry 165, 2-(4-hydroxy-3-methoxyphenyl)-8-oxo-9-(tetrahydrofuran-2-ylmethyl)-8,9-dihydro-7H-purine-6-carboxamide]
14 | 1.128 | 1.321 | COCc1c(Br)c(C)nc2sc3c(=O)[nH]nnc3c12 [Entry 166, 8-bromo-9-(methoxymethyl)-7-methylpyrido[3′,2′:4,5]thieno[3,2-d][1,2,3]triazin-4(3H)-one]
15 | 1.413 | 1.995 | COCc1c(Br)c(C)nc2sc3c(=O)n(-c4ccccc4C(=O)OC)nnc3c12 [Entry 167, methyl 2-(8-bromo-9-(methoxymethyl)-7-methyl-4-oxopyrido[3′,2′:4,5]thieno[3,2-d][1,2,3]triazin-3(4H)-yl)benzoate]
16 | 1.452 | 1.678 | Cc1c(C(=O)N2CCCC2)oc2c1-c1nn(CC(=O)NCCCOC(C)C)cc1CC2 [Entry 168, 2-[8-methyl-7-(pyrrolidine-1-carbonyl)-4,5-dihydrofuro[2,3-g]indazol-2-yl]-N-(3-propan-2-yloxypropyl)acetamide]
17 | 1.455 | 1.879 | CCOCCCNC(=O)Cn1cc2c(n1)-c1c(oc(C(=O)N3CCCC3)c1C)CC2 [Entry 169, N-(3-ethoxypropyl)-2-[8-methyl-7-(pyrrolidine-1-carbonyl)-4,5-dihydrofuro[2,3-g]indazol-2-yl]acetamide]
18 | 1.302 | 1.816 | Cc1ccccc1CNC(=O)Cn1cc2c(n1)-c1c(oc(C(=O)N3CCCC3)c1C)CC2 [Entry 170, N-[(2-methylphenyl)methyl]-2-[8-methyl-7-(pyrrolidine-1-carbonyl)-4,5-dihydrofuro[2,3-g]indazol-2-yl]acetamide]
19 | 1.374 | 1.777 | COCCNC(=O)Cn1cc2c(n1)-c1c(oc(C(=O)N3CCCC3)c1C)CC2 [Entry 171, N-(2-methoxyethyl)-2-[8-methyl-7-(pyrrolidine-1-carbonyl)-4,5-dihydrofuro[2,3-g]indazol-2-yl]acetamide]
20 | 1.296 | 1.616 | Cc1c(C(=O)N2CCCC2)oc2c1-c1nn(CC(=O)NCc3ccccc3Br)cc1CC2 [Entry 172, N-[(2-bromophenyl)methyl]-2-[8-methyl-7-(pyrrolidine-1-carbonyl)-4,5-dihydrofuro[2,3-g]indazol-2-yl]acetamide]
21 | 1.19 | 1.657 | CCOC(=O)c1cccc(NC(=O)c2oc3c(c2C)-c2nn(CC)cc2CC3)c1 [Entry 173, ethyl 3-[(2-ethyl-8-methyl-4,5-dihydrofuro[2,3-g]indazole-7-carbonyl)amino]benzoate]
22 | 1.278 | 1.87 | Cc1ccc(Cl)cc1NC(=O)c1oc2c(c1C)-c1[nH]ncc1CC2 [Entry 174, N-(5-chloro-2-methylphenyl)-8-methyl-4,5-dihydro-1H-furo[2,3-g]indazole-7-carboxamide]

From patent publication US12171755B2, “PAPD5 inhibitors and methods of use thereof” (Children's Medical Center Corporation, priority 2017, dated 2024)
